Results published in the supplement of paper PMC6470124.

Assays:
[1] = absolute recovery over vacuum-assisted evaporative concentration; higher = better recovery; settings: enrichment method: VEC
Outline: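 Samples of influent (6 mL), effluent (15 mL) and surface or nanopure water (60 mL) were spiked with standards before or after concentration, or left unspiked, at 200 ng/L (nanopure/surface) or 1000 ng/L (wastewater), adjusted by class and compound. Concentration was by evaporation at 55 °C and 20 mbar to about 0.3 mL, followed by adjustment to 0.4 mL and centrifugation. Internal standards were then added for LC-HRMS/MS analysis. Absolute recovery was (response ratio pre − unspiked)/(post − unspiked) × 100, using averages of ≥ 2 replicates.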

[2] = absolute recovery over mixed-bed multilayer solid-phase extraction; higher = better recovery; settings: enrichment method: SPE
Outline: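 Absolute recovery rests on background-corrected response ratios of pre- versus post-spiked samples, averaged over at least two replicates. Wastewater (100–250 mL, pH 6.5, glass-fibre filtered) was spiked at 1000 ng/L and unfiltered nanopure water (1000 mL) at 200 ng/L, before or after three-layer mixed-bed cartridge extraction or not at all, with exceptions for some classes. Analysis after internal standard addition used liquid chromatography with high-resolution tandem mass spectrometry in both ionisation modes.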

[3] = LC retention time (Atlantis T3, 5-95% MeOH gradient, 0.1% formic acid); higher = more retained / less polar
Outline: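 Retention times were recorded for reference standards (purity ≥ 95%) on a polar reversed-phase C18 column (Atlantis T3, 3 × 150 mm, 3 μm) at 0.3 mL/min. Elution used water and methanol, each with 0.1% formic acid, in a gradient from 5 to 95% methanol over 17.5 min. Detection was by high-resolution tandem mass spectrometry on a QExactive Plus, with positive and negative electrospray in separate runs. Peaks were found and integrated in TraceFinder (5 ppm tolerance, at least three points per peak) and then checked by hand.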

absolute recovery ([1]; wastewater effluent)	absolute recovery ([1]; wastewater influent)	absolute recovery ([2]; nanopure water)	absolute recovery ([2]; surface water)	absolute recovery ([2]; wastewater effluent)	LC retention time [3]	absolute recovery ([2]; wastewater influent)	Structure (SMILES)
		118%	101%	102%	12.9 min	91.4%	COC(=O)c1ccccc1S(N)(=O)=O [2-Aminosulfonyl-benzoicacid-methylester]
		96%	84.5%	87.5%	11.9 min		CC(=O)Nc1c(C)n(C)n(-c2ccccc2)c1=O [4-Acetamidoantipyrin (=N-Acetyl-4-Aminoantipyrin, 4-AAA)]
		83.1%	97.1%	86.1%	20.9 min	37.3%	O=C(c1ccccc1)c1ccc(Cl)cc1 [4-Chlorobenzophenone]
					10.2 min		Nc1c(I)c(C(=O)[O-])c(I)c(C(=O)[O-])c1I [5-Amino-2-4-6-triiodoisophthalic-acid]
		82%	69.4%	73.7%	7.57 min		Nc1ncnc2c1ncn2C1OC(CO)C(O)C1O (stereo unspecified) [Adenosine]
102%	99.8%				8.59 min		CC(C)(C)[NH2+]CC(O)c1ccc(O)c(CO)c1 (stereo unspecified) [Albuterol]
		113%			6.21 min		O=c1ncnc2[nH][nH]cc1-2 [Allopurinol]
65.2%					20.2 min		CC1=C(C(=O)[O-])N2C(=O)C(NC(=O)C([NH3+])c3ccccc3)C2SC1 (stereo unspecified) [Cefalexin]
					2.76 min		OCC(O)C(O)C(OC1OC(CO)C(O)C(O)C1O)C(O)CO [D-Lactitol]
101%	99.7%				18 min		CC(C)CN(CC(O)C(Cc1ccccc1)NC(=O)OC1COC2OCCC12)S(=O)(=O)c1ccc(N)cc1 (stereo unspecified) [Darunavir]
		23.9%			4.36 min		[NH3+]CCc1ccc(O)c(O)c1 [Dopamine]
		40.2%	12.7%	15.9%	3.27 min	26.6%	C[NH2+]CC(O)c1ccc(O)c(O)c1 (stereo unspecified) [Epinephrine]
105%	106%				14.5 min		O=C(NCC1CCCC[NH2+]1)c1cc(OCC(F)(F)F)ccc1OCC(F)(F)F (stereo unspecified) [Flecainid]
105%	72.3%				20.8 min		CC(C)n1c(C=CC(O)CC(O)CC(=O)[O-])c(-c2ccc(F)cc2)c2ccccc21 (stereo unspecified) [Fluvastatin]
110%	96.4%				18.8 min		CC(C(=O)[O-])c1cccc(C(=O)c2ccccc2)c1 (stereo unspecified) [Ketoprofen]
86.8%	100%				17.1 min		Cc1c(OCC(F)(F)F)ccnc1CS(=O)c1nc2ccccc2[nH]1 (stereo unspecified) [Lansoprazole]
		83.2%	82%	78.5%	5.47 min	86.1%	C[NH2+]CC(O)c1cccc(O)c1 (stereo unspecified) [Phenylephrine]
60.5%	37.5%				14.4 min		COc1cc(NC(C)CCC[NH3+])c2ncccc2c1 (stereo unspecified) [Primaquine]
102%	98.7%				8.64 min		CNC(=C[N+](=O)[O-])NCCSCc1ccc(C[NH+](C)C)o1 [Ranitidin]
		57.8%	66.6%	48.4%	15.5 min	68.9%	Oc1ccc(C=Cc2cc(O)cc(O)c2)cc1 [Resveratrol]
					22.9 min		CCC(C)(C)C(=O)OC1CC(C)C=C2C=CC(C)C(CCC3CC(O)CC(=O)O3)C21 (stereo unspecified) [Simvastatin]
		53.8%	67.1%		12.6 min		[NH3+]C(CC(=O)N1CCn2c(nnc2C(F)(F)F)C1)Cc1cc(F)c(F)cc1F (stereo unspecified) [Sitagliptin]
102%	113%				13 min		Cc1cc([N-]S(=O)(=O)c2ccc(N)cc2)no1 [Sulfamethoxazol]
107%	106%				10.5 min		COc1cc(Cc2c[nH+]c(N)nc2N)cc(OC)c1OC [Trimethoprim]

The remaining lines, values behind:

Structure (SMILES)	absolute recovery ([1]; wastewater effluent)	absolute recovery ([1]; wastewater influent)	absolute recovery ([2]; nanopure water)	absolute recovery ([2]; surface water)	absolute recovery ([2]; wastewater effluent)	LC retention time [3]	absolute recovery ([2]; wastewater influent)
N#Cc1c(Cl)c(Cl)c([O-])c(C(=[NH2+])[O-])c1Cl	109%	105%	101%	99.6%	94.8%	16.8 min	
CC(C)CC(C[NH3+])CC(=O)[O-] (racemic) [Pregabalin-rac]	108%	101%	16.3%	2%	2.6%	10.3 min	
O=[N+]([O-])c1ccc(C2OC2c2ccc([N+](=O)[O-])cc2S(=O)(=O)[O-])c(S(=O)(=O)[O-])c1 (stereo unspecified) [1-2-Bis-(4-4-dinitro-2-2-disulfonic acid-phenylethylenoxide]			106%			19.7 min	
O=C([O-])C[NH+](CCC[NH+](CC(=O)[O-])CC(=O)[O-])CC(=O)[O-] [1-3-Propylene-diaminotetraacetic-acid]	85.1%	117%				3.58 min	
Nc1ccc2c(S(=O)(=O)[O-])cccc2c1S(=O)(=O)[O-] [2-amino-1-5-napthalenedisulfonic-acid]						4.35 min	
Oc1ccc(C(F)(F)F)cc1 [4-(Trifluoromethyl)phenol]			68.5%		71.8%	18.3 min	95.1%
Cc1c(NC=O)c(=O)n(-c2ccccc2)n1C [4-Formylaminoantipyrin (=4-FAA)]			101%	93.6%	90.2%	11.7 min	103%
CC1(C)SC2C([NH3+])C(=O)N2C1C(=O)[O-] (stereo unspecified) [6-Aminopenicillanic-acid]	90.3%	86.7%				4.79 min	
CC(=O)NCCCS(=O)(=O)[O-] [Acamprosat]						4.93 min	
CC1=CC(=O)[N-]S(=O)(=O)O1 [Acesulfam]			93.2%			9.43 min	
CCOCN(C(=O)CS(=O)(=O)[O-])c1c(C)cccc1CC [Acetochlor-ESA]		108%				17.2 min	
CCc1cccc(CC)c1N(COC)C(=O)CS(=O)(=O)[O-] [Alachlor-ESA]		106%				17.2 min	
C[NH+]1CCN(C2=Nc3cc(Cl)ccc3Nc3ccccc32)CC1 [Clozapin]	102%	98%				14.4 min	
CCOC(=O)Nc1cccc(OC(=O)Nc2ccccc2)c1 [Desmedipham D]			90.8%	117%	106%	18.6 min	76.2%
CCOP(=O)(OCC)Oc1cc(C)nc(C(C)C)n1 [Diazoxon]	85.6%	95.3%				18.8 min	
N#Cc1nn(-c2c(Cl)cc(C(F)(F)F)cc2Cl)c(N)c1C(F)(F)F [Fipronil-desulfinyl]			139%			20.2 min	
C#CCN1C(=O)COc2cc(F)c(N3C(=O)C4=C(CCCC4)C3=O)cc21 [Flumioxazin]			99.7%	77.4%	91.6%	18.8 min	64%

Structure (SMILES)	absolute recovery ([1]; wastewater effluent)	absolute recovery ([1]; wastewater influent)	absolute recovery ([2]; nanopure water)	absolute recovery ([2]; surface water)	absolute recovery ([2]; wastewater effluent)	LC retention time [3]	absolute recovery ([2]; wastewater influent)
NC(=O)N=C(N)N [Guanylurea]			42.6%			3.13 min	
O=C(CCC[NH+]1CCC(O)(c2ccc(Cl)cc2)CC1)c1ccc(F)cc1 [Haloperidol]	114%	118%				15 min	
O=c1ccc(=O)[nH][n-]1 [Maleic-hydrazide]				12.8%		5.88 min	
Nc1nc(N)[nH+]c(N)n1 [Melamin]			21.3%			3.5 min	
CCC(=O)C(CC(C)[NH+](C)C)(c1ccccc1)c1ccccc1 (stereo unspecified) [Methadon]	105%	100%				15.9 min	
CNC(=O)Oc1cc(C)c(S(C)=O)c(C)c1 (stereo unspecified) [Methiocarb-sulfoxide]			75.7%	83%	77.8%	13.7 min	58.2%
CC[N-]S(=O)(=O)C(F)(F)C(F)(F)C(F)(F)C(F)(F)C(F)(F)C(F)(F)C(F)(F)C(F)(F)F [N-EtFOSA]				57.6%	66.9%	22.8 min	
CN(CC(=O)[O-])S(=O)(=O)C(F)(F)C(F)(F)C(F)(F)C(F)(F)C(F)(F)C(F)(F)C(F)(F)C(F)(F)F [N-MeFOSAA]				80%	95.4%	23.3 min	
C[N-]S(=O)(=O)C(F)(F)C(F)(F)C(F)(F)C(F)(F)C(F)(F)C(F)(F)C(F)(F)C(F)(F)F [N-MeFOSA]				50.3%	61.7%	22.3 min	
O=C([O-])C(F)(F)C(F)(F)C(F)(F)C(F)(F)C(F)(F)F [PFHxA]	95.2%	89.4%				18.8 min	
O=C([O-])C(F)(F)C(F)(F)C(F)(F)C(F)(F)C(F)(F)C(F)(F)C(F)(F)F [PFOA]	87.3%	90%				20 min	
O=C([O-])C(F)(F)C(F)(F)C(F)(F)C(F)(F)F [PFPA]						12.4 min	
CCc1cc(C)cc(CC)c1-c1c(OC(=O)C(C)(C)C)n2n(c1=O)CCOCC2 [Pinoxaden]	51.6%	10.7%				21.2 min	
CCCN(CCC)C(=O)SCc1ccccc1 [Prosulfocarb]			38.9%	35.1%	43.2%	11.5 min	
[NH3+]C(CO)(CO)CO [Trometamol]	105%	73.2%				2.85 min	
COc1ccc(CC[NH+](C)CCCC(C#N)(c2ccc(OC)c(OC)c2)C(C)C)cc1OC (stereo unspecified) [Verapamil]	98.2%	97.4%				15.1 min	
